In ChEMBL document CHEMBL1909046, “DrugMatrix in vitro pharmacology data”:
Where a SMILES comes first, the peptide text is derived from it. Bridges are numbered along the chain shown (N, C = ends). [ ]: non-standard residue; d: D form. The star is where a group is joined. Ileψ(thiazoline)Cys = CC[C@H](C)[C@H](N)C1=N[C@H](C(=O)*)CS1; dOrn = NCCC[C@@H](N)C(=O)O

Assays:
[1] = DRUGMATRIX: Calcium Channel Type L, Benzothiazepine radioligand binding (ligand: [3H] Diltiazem); format: cell membranes, Rattus norvegicus, Wistar, Brain, Membrane; settings: Not Active = under 50% inhibition at 10 µM
[2] = target: Sodium-dependent dopamine transporter (Homo sapiens, UniProt Q01959); experiment: DRUGMATRIX: Dopamine Transporter radioligand binding (ligand: [125I] RTI-55); format: cell membranes, CHO-K1, Membrane; settings: cho-k1; Not Active = under 50% inhibition at 10 µM
Sequence of Sodium-dependent dopamine transporter (Q01959 whole entry): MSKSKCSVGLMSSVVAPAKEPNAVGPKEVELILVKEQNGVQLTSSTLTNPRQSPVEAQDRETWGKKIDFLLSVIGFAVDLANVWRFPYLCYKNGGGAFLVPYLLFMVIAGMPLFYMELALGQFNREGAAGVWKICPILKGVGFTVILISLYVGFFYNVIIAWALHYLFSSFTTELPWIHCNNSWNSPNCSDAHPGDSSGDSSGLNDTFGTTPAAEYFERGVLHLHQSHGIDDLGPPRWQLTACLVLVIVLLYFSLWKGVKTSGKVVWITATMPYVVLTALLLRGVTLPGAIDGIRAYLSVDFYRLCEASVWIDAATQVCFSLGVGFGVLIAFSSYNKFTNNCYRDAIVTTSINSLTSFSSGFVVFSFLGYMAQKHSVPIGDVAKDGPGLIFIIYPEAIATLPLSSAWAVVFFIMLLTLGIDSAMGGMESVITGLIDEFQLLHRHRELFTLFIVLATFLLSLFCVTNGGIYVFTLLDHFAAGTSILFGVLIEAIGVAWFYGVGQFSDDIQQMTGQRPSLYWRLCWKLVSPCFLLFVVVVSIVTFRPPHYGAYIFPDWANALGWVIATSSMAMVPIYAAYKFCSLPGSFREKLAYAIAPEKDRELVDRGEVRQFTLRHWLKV

[3] = DRUGMATRIX: Glutamate, NMDA, Phencyclidine radioligand binding (ligand: [3H] TCP); format: cell membranes, Rattus norvegicus, Wistar, Cerebral cortex, Membrane; settings: Not Active = under 50% inhibition at 10 µM
[4] = target: C-C chemokine receptor type 2 (Homo sapiens, UniProt P41597); format: cell membranes, CHO-K1, Membrane; settings: cho-k1; also: in other assays of this panel Not Active means under 50% inhibition at 10 µM
Sequence of C-C chemokine receptor type 2 (P41597 whole entry): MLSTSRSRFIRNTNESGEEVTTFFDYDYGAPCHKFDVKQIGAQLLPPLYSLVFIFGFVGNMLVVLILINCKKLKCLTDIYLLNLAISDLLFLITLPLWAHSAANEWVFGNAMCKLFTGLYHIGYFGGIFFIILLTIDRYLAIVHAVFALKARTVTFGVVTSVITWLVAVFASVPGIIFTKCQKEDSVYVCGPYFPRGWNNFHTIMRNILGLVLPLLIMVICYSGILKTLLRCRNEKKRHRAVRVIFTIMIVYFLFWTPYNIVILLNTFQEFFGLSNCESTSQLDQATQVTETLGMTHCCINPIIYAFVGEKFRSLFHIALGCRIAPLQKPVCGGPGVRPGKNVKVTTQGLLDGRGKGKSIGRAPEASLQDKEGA

Estrogen receptor beta = Estrogen receptor beta (Homo sapiens, UniProt Q92731); settings: sf9; also: in other assays of this panel Not Active means under 50% inhibition at 10 µM
Sequence of Estrogen receptor beta (Q92731 whole entry): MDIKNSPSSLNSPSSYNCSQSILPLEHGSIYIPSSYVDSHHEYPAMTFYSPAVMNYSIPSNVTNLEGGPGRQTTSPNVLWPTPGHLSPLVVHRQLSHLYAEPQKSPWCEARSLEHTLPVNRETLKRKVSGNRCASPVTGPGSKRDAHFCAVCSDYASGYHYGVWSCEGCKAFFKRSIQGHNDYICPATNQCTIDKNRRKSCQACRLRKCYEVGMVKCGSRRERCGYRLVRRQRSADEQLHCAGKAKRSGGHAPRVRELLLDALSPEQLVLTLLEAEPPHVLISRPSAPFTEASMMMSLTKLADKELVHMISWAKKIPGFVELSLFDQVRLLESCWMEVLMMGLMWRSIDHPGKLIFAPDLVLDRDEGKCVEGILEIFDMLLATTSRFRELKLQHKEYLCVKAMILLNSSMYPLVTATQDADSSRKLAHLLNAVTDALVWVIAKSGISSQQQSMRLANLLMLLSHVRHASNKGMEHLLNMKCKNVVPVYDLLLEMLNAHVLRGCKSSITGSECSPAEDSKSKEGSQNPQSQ

[5] = target: T1, Receptor-type tyrosine-protein phosphatase C (Homo sapiens, UniProt P08575); design: species or system Escherichia coli;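 also: inhibition of CD45 enzyme activity measured using DiFMUP as substrate; in other assays of this panel Not Active means under 50% inhibition at 10 µM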
T1 sequence (P08575 whole entry): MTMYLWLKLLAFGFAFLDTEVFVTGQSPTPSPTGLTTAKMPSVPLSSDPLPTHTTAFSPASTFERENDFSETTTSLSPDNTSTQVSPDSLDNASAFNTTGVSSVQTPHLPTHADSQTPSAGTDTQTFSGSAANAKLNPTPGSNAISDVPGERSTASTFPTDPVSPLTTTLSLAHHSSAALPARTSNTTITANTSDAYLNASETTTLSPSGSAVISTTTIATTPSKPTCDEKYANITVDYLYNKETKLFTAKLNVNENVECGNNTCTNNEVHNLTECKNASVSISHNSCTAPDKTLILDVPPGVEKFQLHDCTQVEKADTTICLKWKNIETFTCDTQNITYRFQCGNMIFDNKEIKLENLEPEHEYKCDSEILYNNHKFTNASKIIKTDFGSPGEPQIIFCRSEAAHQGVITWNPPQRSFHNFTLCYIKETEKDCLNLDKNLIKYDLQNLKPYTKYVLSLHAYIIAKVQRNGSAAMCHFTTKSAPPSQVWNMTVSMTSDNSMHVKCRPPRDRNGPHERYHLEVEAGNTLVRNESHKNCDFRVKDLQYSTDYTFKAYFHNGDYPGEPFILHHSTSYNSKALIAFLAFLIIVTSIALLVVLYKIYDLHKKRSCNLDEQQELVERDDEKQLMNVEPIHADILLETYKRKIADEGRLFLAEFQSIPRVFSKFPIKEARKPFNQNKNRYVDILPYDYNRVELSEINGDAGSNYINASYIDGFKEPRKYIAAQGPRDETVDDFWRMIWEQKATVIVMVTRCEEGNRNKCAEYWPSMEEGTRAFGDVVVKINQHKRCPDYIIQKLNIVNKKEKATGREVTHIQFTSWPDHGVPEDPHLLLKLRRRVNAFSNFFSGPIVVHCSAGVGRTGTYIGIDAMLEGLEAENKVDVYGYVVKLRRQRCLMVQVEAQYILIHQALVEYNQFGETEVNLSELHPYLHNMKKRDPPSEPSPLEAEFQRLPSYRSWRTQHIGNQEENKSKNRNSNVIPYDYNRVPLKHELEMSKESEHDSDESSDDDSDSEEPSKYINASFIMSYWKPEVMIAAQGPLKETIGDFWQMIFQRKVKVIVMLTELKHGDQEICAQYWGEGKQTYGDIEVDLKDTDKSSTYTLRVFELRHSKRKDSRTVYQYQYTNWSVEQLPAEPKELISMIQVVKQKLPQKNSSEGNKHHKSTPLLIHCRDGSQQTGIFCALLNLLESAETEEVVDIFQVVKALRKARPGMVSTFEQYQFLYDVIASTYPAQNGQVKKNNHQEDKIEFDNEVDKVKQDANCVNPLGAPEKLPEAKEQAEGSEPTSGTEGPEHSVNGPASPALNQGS

B2 bradykinin receptor = target: T2, B2 bradykinin receptor (Homo sapiens, UniProt P30411); format: cell membranes, Membrane; settings: chem-1; also: in other assays of this panel Not Active means under 50% inhibition at 10 µM
T2 sequence (P30411 whole entry): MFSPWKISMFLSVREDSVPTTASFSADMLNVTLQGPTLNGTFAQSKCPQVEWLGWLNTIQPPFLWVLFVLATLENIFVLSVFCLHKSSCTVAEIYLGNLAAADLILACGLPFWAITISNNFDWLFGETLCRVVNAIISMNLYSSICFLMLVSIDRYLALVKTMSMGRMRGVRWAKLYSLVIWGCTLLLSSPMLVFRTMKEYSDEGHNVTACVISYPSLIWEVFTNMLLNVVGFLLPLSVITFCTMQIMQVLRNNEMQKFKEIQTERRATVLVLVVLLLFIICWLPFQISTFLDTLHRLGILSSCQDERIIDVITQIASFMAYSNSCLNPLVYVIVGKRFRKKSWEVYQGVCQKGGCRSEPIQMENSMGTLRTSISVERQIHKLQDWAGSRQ

[6] = target: T3, Muscarinic acetylcholine receptor M4 (Homo sapiens, UniProt P08173); format: cell membranes, CHO-K1, Membrane; settings: cho-k1; also: in other assays of this panel Not Active means under 50% inhibition at 10 µM
T3 sequence (P08173 whole entry): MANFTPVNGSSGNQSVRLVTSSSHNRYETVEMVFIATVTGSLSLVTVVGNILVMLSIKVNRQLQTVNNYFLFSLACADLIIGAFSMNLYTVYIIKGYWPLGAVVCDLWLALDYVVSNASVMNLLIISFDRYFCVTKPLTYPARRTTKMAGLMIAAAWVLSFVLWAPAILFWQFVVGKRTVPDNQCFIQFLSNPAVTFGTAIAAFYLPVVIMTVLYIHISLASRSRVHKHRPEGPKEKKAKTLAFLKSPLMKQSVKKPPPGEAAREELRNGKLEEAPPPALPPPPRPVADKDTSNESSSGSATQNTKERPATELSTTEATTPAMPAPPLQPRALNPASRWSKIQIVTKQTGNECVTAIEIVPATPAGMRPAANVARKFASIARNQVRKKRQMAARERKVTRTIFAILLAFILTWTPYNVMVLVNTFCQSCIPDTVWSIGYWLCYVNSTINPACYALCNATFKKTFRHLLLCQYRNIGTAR

Cytochrome P450 2E1 = Cytochrome P450 2E1 (Homo sapiens, UniProt P05181); settings: bti-tn-5b1-4; also: in other assays of this panel Not Active means under 50% inhibition at 10 µM
Sequence of Cytochrome P450 2E1 (P05181 whole entry): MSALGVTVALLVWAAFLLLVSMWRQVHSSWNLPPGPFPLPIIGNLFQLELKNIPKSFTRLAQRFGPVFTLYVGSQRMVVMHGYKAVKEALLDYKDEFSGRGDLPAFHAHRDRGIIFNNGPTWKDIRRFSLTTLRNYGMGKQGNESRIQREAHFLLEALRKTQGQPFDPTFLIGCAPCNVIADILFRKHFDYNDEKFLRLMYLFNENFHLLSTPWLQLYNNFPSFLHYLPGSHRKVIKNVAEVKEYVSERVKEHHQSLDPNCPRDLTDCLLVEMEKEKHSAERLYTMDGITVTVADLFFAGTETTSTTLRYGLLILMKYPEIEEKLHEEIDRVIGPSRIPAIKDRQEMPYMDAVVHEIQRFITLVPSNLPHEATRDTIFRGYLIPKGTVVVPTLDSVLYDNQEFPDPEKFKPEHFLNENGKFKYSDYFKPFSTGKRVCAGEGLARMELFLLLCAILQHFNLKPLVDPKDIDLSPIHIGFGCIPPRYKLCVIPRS

[7] = target: 5-hydroxytryptamine receptor 4 (Cavia porcellus, UniProt O70528); format: cell membranes, Dunkin-Hartley, Striatum, Membrane; also: in other assays of this panel Not Active means under 50% inhibition at 10 µM
Sequence of 5-hydroxytryptamine receptor 4 (O70528 whole entry): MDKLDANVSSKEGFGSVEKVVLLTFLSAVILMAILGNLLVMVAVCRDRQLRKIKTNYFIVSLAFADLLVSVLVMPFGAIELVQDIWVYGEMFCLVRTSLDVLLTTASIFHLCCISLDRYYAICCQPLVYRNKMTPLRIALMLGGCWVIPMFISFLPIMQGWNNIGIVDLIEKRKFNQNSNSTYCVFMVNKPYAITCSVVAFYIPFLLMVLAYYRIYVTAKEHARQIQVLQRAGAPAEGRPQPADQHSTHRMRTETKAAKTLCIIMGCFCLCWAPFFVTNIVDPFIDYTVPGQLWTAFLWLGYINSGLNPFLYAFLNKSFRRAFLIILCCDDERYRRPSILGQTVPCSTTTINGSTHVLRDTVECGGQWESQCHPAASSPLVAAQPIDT

[8] = target: C-C chemokine receptor type 5 (Homo sapiens, UniProt P51681); format: cell membranes, Membrane; settings: hek293; also: in other assays of this panel Not Active means under 50% inhibition at 10 µM
Sequence of C-C chemokine receptor type 5 (P51681 whole entry): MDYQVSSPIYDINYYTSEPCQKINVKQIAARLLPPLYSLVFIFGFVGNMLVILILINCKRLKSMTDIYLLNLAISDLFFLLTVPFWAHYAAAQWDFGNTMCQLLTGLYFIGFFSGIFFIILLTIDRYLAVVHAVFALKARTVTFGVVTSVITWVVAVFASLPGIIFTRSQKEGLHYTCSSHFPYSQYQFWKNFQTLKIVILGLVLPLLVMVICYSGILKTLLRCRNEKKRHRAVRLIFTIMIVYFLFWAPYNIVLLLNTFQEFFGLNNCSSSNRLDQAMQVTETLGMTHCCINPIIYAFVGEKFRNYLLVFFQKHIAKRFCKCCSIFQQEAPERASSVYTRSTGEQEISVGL

D(1A) dopamine receptor = D(1A) dopamine receptor (Homo sapiens, UniProt P21728); experiment: DRUGMATRIX: Dopamine D1 radioligand binding (ligand: [3H] SCH-23390); format: cell membranes, CHO, Membrane; settings: cho; Not Active = under 50% inhibition at 10 µM
Sequence of D(1A) dopamine receptor (P21728 whole entry): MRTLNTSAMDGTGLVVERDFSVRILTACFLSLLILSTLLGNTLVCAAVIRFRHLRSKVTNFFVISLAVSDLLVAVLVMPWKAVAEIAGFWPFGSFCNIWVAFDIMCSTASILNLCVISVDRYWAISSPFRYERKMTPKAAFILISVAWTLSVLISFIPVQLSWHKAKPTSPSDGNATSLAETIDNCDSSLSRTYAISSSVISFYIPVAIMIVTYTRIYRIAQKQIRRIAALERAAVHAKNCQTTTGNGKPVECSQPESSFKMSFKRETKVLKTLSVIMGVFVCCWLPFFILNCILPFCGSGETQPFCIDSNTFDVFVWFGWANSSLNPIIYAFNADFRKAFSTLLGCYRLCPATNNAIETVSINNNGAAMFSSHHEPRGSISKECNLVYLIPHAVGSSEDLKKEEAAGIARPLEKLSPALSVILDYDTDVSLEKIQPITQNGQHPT

[9] = target: Matrix metalloproteinase-9 (Homo sapiens, UniProt P14780); format: cell-based
Sequence of Matrix metalloproteinase-9 (P14780 whole entry): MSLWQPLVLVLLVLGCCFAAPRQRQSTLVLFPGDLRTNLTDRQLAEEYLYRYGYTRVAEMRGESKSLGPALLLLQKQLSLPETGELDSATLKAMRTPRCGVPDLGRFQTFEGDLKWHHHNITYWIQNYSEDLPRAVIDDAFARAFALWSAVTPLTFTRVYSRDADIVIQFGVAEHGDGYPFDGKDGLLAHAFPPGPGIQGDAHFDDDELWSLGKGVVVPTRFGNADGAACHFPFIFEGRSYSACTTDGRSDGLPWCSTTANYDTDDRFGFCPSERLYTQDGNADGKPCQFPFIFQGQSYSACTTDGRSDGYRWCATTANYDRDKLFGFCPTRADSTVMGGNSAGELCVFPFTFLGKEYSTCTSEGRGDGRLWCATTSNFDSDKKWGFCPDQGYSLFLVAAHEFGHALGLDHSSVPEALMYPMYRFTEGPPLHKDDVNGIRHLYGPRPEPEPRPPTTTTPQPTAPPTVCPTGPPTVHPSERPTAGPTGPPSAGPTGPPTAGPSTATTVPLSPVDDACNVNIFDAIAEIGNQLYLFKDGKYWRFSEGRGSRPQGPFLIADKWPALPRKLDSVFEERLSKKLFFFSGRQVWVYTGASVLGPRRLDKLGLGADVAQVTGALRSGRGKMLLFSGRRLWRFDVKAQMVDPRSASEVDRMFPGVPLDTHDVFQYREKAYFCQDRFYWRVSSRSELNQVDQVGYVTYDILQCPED

N#C[C@H](O[C@@H]1O[C@H](CO[C@@H]2O[C@H](CO)[C@@H](O)[C@H](O)[C@H]2O)[C@@H](O)[C@H](O)[C@H]1O)c1ccccc1 [AMYGDALIN]
Not Active: IC50 [1] | Ki [1] | IC50 [2] | IC50 [3] | Ki [3] | IC50 [4] | IC50 (Estrogen receptor beta) | IC50 [5] | IC50 (B2 bradykinin receptor) | IC50 [6] | IC50 (Cytochrome P450 2E1) | Ki (Cytochrome P450 2E1) | IC50 [7] | IC50 [8] | IC50 (D(1A) dopamine receptor) | IC50 [9]

C=C1[C@@H]2CCC3[C@@](CC[C@@H]4[C@H](C(=O)O)C[C@@H](O[C@@H]5O[C@H](CO)[C@@H](OS(=O)(=O)[O-])[C@H](OS(=O)(=O)[O-])[C@H]5OC(=O)CC(C)C)C[C@@]34C)(C2)[C@@H]1O.[K+].[K+] (stereo partly specified) [ATRACTYLOSIDE]
Not Active: IC50 [1] | Ki [1] | IC50 [2] | IC50 [3] | Ki [3] | IC50 [4] | IC50 (Estrogen receptor beta) | IC50 [5] | IC50 (B2 bradykinin receptor) | IC50 [6] | IC50 (Cytochrome P450 2E1) | Ki (Cytochrome P450 2E1) | IC50 [7] | IC50 [8] | IC50 (D(1A) dopamine receptor) | IC50 [9]

Cn1cnc([N+](=O)[O-])c1Sc1ncnc2nc[nH]c12 [AZATHIOPRINE]
Not Active: IC50 [1] | Ki [1] | IC50 [2] | IC50 [3] | Ki [3] | IC50 [4] | IC50 (Estrogen receptor beta) | IC50 [5] | IC50 (B2 bradykinin receptor) | IC50 [6] | IC50 (Cytochrome P450 2E1) | Ki (Cytochrome P450 2E1) | IC50 [7] | IC50 [8] | IC50 (D(1A) dopamine receptor) | IC50 [9]

CC1(C)S[C@@H]2[C@H](NC(=O)[C@H](NC(=O)N3CCNC3=O)c3ccccc3)C(=O)N2[C@H]1C(=O)O [AZLOCILLIN]
Not Active: IC50 [1] | Ki [1] | IC50 [2] | IC50 [3] | Ki [3] | IC50 [4] | IC50 (Estrogen receptor beta) | IC50 [5] | IC50 (B2 bradykinin receptor) | IC50 [6] | IC50 (Cytochrome P450 2E1) | Ki (Cytochrome P450 2E1) | IC50 [7] | IC50 [8] | IC50 (D(1A) dopamine receptor) | IC50 [9]

CC[C@H](C)[C@H](N)C1=N[C@H](C(=O)N[C@@H](CC(C)C)C(=O)N[C@H](CCC(=O)O)C(=O)N[C@H](C(=O)N[C@H]2CCCCNC(=O)[C@H](CC(N)=O)NC(=O)[C@@H](CC(=O)O)NC(=O)[C@H](Cc3cnc[nH]3)NC(=O)[C@@H](Cc3ccccc3)NC(=O)[C@H]([C@@H](C)CC)NC(=O)[C@@H](CCCN)NC2=O)[C@@H](C)CC)CS1 [BACITRACIN] ({Ileψ(thiazoline)Cys}-L[dE]IK[dOrn]I[dF]H[dD]N; lactam 4-C)
Not Active: IC50 [1] | Ki [1] | IC50 [2] | IC50 [3] | Ki [3] | IC50 [4] | IC50 (Estrogen receptor beta) | IC50 [5] | IC50 (B2 bradykinin receptor) | IC50 [6] | IC50 (Cytochrome P450 2E1) | Ki (Cytochrome P450 2E1) | IC50 [7] | IC50 [8] | IC50 (D(1A) dopamine receptor) | IC50 [9]

CCOC(=O)c1ccc(N)cc1 [BENZOCAINE]
Not Active: IC50 [1] | Ki [1] | IC50 [2] | IC50 [3] | Ki [3] | IC50 [4] | IC50 (Estrogen receptor beta) | IC50 [5] | IC50 (B2 bradykinin receptor) | IC50 [6] | IC50 (Cytochrome P450 2E1) | Ki (Cytochrome P450 2E1) | IC50 [7] | IC50 [8] | IC50 (D(1A) dopamine receptor) | IC50 [9]
